Each block holds one compound with its values, some of them ahead of it.
Tests used:
[1] = target: Ribosomal protein S6 kinase alpha-6 (Homo sapiens, UniProt Q9UK32); details: at 10 µM
[2] = target: T1, Receptor-interacting serine/threonine-protein kinase 1 (Homo sapiens) (UniProt Q13546); experiment: Selectivity interaction (Ambit KINOMEscan and KiNATiv profiling in Jurkat cells) EUB0000090b RIPK1; format: cell-based; details: at 1 µM
T1 sequence (whole entry): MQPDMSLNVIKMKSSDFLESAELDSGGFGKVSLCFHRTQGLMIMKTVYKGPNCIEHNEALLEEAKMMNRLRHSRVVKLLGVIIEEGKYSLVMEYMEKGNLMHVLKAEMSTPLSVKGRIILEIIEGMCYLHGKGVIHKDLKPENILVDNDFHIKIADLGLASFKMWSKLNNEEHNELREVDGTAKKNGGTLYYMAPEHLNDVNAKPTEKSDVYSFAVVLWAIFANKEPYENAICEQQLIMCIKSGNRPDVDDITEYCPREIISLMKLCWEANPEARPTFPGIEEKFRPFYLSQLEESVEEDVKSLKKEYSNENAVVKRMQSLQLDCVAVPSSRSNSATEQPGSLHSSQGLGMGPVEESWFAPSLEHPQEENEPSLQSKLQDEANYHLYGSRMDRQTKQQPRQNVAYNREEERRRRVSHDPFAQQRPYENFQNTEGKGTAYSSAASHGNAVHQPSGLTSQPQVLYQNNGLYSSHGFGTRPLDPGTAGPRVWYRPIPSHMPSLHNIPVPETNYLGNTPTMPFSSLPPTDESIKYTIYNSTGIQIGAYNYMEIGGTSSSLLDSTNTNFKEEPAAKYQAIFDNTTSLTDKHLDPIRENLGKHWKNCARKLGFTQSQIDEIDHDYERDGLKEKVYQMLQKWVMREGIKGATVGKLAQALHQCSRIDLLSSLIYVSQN

[3] = target: Phosphatidylinositol 4,5-bisphosphate 3-kinase catalytic subunit gamma isoform (Homo sapiens) (UniProt P48736); experiment: Selectivity interaction (KinomeScan (DiscoverX)) EUB0000045b PIK3CG
Phosphatidylinositol 4,5-bisphosphate 3-kinase catalytic subunit gamma isoform (Homo sapiens), sequence (P48736 whole entry, looked up, canonical isoform): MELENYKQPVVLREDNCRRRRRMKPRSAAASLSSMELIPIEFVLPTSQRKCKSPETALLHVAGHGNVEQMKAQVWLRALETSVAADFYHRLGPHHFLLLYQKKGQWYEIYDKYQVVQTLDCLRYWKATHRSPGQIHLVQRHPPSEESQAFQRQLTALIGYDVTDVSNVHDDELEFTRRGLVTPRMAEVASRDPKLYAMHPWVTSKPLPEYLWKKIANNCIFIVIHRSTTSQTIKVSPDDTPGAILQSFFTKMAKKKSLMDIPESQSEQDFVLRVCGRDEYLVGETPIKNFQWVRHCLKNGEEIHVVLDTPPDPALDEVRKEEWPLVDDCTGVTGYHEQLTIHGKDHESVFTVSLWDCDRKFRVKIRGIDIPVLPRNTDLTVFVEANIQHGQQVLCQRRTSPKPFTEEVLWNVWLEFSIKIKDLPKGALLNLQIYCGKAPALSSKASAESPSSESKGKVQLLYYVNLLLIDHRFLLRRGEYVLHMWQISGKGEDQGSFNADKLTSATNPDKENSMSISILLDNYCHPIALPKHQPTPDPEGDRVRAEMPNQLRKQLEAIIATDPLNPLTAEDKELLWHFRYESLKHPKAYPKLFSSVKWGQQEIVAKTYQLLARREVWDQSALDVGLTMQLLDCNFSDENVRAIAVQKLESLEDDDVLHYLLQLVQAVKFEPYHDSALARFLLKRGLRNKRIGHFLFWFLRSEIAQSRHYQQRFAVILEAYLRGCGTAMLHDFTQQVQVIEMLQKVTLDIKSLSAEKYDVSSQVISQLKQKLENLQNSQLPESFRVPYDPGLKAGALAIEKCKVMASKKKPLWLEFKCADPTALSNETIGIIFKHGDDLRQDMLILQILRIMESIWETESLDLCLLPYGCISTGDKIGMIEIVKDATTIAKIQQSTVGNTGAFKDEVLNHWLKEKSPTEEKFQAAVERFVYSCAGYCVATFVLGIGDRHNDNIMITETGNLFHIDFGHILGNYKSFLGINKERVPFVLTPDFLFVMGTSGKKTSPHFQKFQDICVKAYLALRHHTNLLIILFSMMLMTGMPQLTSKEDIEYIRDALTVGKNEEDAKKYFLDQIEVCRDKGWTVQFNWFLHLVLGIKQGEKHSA

[4] = target: T2, Ephrin type-B receptor 1 (Homo sapiens) (UniProt P54762); experiment: Selectivity interaction (KinomeScan (DiscoverX)) EUB0000229b EPHB1; details: at 10 µM
T2 sequence (whole entry): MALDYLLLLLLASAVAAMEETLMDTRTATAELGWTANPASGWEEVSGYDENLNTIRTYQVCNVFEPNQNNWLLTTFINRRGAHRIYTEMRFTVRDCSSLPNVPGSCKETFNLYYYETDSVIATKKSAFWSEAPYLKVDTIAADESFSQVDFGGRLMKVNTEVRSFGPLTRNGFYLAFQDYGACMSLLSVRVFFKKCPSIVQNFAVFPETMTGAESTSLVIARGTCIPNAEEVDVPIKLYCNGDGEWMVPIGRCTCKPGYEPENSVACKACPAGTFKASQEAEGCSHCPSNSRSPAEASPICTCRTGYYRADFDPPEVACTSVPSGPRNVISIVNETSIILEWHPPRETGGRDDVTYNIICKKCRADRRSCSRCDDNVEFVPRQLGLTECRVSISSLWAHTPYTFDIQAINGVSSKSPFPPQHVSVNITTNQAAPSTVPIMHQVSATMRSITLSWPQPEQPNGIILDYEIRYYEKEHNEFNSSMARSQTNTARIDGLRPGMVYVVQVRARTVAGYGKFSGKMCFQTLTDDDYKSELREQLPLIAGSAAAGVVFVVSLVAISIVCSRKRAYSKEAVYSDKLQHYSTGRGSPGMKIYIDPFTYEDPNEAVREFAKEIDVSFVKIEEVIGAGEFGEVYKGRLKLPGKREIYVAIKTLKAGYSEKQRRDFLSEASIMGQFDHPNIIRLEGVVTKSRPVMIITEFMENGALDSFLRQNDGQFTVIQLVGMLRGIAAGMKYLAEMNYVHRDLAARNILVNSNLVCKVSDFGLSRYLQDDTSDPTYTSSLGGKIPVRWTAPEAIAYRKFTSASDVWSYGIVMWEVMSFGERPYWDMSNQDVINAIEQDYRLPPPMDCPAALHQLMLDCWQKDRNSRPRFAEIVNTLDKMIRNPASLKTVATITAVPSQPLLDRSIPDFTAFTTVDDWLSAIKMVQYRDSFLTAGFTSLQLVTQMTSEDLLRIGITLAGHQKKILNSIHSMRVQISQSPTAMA

[5] = target: T3, Serine/threonine-protein kinase D3 (Homo sapiens) (UniProt O94806); experiment: Selectivity interaction (KinomeScan (DiscoverX)) EUB0000666a PRKD3; details: at 10 µM
T3 sequence (whole entry): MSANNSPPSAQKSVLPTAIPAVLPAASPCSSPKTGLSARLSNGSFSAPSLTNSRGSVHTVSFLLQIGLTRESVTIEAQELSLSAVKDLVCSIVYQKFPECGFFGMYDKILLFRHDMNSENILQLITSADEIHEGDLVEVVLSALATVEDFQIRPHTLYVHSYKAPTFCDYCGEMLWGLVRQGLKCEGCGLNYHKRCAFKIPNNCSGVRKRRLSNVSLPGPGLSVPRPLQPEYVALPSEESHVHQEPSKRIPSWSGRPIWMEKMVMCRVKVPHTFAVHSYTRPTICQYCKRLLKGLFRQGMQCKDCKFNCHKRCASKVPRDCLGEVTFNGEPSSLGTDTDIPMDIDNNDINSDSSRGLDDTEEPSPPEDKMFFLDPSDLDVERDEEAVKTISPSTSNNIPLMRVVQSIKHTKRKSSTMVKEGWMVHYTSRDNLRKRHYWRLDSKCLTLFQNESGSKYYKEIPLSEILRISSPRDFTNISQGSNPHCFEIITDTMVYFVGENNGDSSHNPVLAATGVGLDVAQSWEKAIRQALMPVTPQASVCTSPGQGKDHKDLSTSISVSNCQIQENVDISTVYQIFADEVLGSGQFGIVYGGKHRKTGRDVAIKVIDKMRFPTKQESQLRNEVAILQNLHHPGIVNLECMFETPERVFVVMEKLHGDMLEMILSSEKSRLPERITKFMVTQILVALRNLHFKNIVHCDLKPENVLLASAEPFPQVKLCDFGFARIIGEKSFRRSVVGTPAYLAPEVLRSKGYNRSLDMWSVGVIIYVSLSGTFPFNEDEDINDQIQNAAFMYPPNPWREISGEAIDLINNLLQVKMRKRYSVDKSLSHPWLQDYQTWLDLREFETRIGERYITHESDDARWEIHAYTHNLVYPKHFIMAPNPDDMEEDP

Ribosomal protein S6 kinase alpha-6, sequence (Q9UK32 whole entry): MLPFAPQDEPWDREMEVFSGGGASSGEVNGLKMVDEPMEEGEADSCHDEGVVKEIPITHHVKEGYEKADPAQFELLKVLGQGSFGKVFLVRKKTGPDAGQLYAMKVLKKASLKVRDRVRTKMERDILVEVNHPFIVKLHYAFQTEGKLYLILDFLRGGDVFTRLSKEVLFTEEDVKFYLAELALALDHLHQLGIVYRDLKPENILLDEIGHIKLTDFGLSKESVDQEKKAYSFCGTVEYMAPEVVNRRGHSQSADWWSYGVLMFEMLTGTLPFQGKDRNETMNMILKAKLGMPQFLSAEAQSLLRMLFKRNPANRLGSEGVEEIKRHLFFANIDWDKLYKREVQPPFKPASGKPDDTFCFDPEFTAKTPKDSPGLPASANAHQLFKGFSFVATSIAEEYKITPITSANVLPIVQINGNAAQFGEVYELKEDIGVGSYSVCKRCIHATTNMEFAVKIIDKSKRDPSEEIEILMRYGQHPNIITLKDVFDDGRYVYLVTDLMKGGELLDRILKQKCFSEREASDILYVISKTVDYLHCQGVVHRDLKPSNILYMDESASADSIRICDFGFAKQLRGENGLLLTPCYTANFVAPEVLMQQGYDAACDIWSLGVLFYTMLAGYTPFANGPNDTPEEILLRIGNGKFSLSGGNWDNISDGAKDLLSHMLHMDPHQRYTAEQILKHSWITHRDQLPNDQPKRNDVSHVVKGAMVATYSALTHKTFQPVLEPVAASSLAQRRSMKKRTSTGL

- % of control [1]: 100%
SMILES: CCN(CC)CCCCNc1ncc2cc(-c3cc(OC)cc(OC)c3)c(NC(=O)NC(C)(C)C)nc2n1

SMILES: CN(C)C/C=C/C(=O)Nc1ccc(C(=O)N2CCCC(Nc3ncc(Cl)c(-c4c[nH]c5ccccc45)n3)C2)cc1 (stereo unspecified)
- % of control [2]: 94%

SMILES: C=CC(=O)Nc1cc(-n2c(=O)ccc3cnc4ccc(-c5ccc(NS(C)(=O)=O)cc5)cc4c32)ccc1C
- % of control ([3]; at 1 µM): 2.8%
- % of control ([3]; at 10 µM): 0%

SMILES: COc1cc(N(C)c2ccnc3ccc(C(F)(F)F)cc23)cc(OC)c1OC
- % binding [4]: 97%

SMILES: O=C(NOC[C@H](O)CO)c1ccc(F)c(F)c1Nc1ccc(I)cc1F
- % of control [5]: 70%

— ChEMBL document CHEMBL5465560, “Selectivity Literature for EUbOPEN Chemogenomic Library” (2024)
